In patent US4605673A, “7H-dibenzo(a,c,)cyclohepten-5-one-(7) derivatives” (Warner-Lambert Company, priority 1982, dated 1986):
Where a name gives a salt, the structure may show the parent alone. Read-outs that look alike come from different tables or passages of the source.

Assays:
[1] = test system: blood-pressure effect of noradrenaline and adrenaline; test: (F) Autonomous test model after IV catecholamine administration (potentiation of blood-pressure effect of noradrenaline and adrenaline); assay type: in vivo, dogs; conditions: for Potentiation of catecholamine blood-pressure effect (F): dogs, result in words
From the text: (F) Autonomous test model in dogs after IV catecholamine administration.

[2] = test system: Reserpine-induced hypothermia; test: (A) Reserpine-induced hypothermia in mice (antidepressive action); assay type: in vivo; conditions: Mus musculus, read-out: Minimal dosage which leads to normalization of body temperature (A)
From the text: The minimal dosage is given which leads to normalization of body temperature measured rectally.

[3] = test system: hexobarbital sleeping period; test: (D) Hexobarbital sleeping period (central sedating or stimulating effects); assay type: in vivo; conditions: mice, 82.5 mg/kg hexobarbital IV
Description: (D) The lengthening of the sleeping period is a common in vivo method for the determination of central sedating or stimulating effects. The test animals are mice subsequent to intravenous (IV) injection with 82.5 mg/kg hexobarbital. The influence on the sleeping period under the trial substance is given in % for control purposes.

[4] = (E) Anticholinergic action measured as mydriasis; assay type: in vivo, mice; conditions: mouse, in vivo, po
From the text: (§1) (E) Anticholinergic action measured as mydriasis (mice).

spontaneous motility = test: (C) Locomotive activity (spontaneous motility), photoelectric systems; assay type: in vivo; conditions: mice; for Spontaneous motility (C), M = methaqualone: 40 m/g i.g.
Description: (C) The locomotive activity reflects the stimulating or depressive effects on the C.N. system. The spontaneous motility (impulses per minute) was measured in mice by means of photoelectric systems according to Irwin (Rev. Can. Biol. 20, 239 (1961). K in the margin=control, (twice), M=methaqualone (40 m/g i.g.) and S=substance.

Toxicity (LD50) = conditions: in vivo
gastric secretion = test: Shay preparation, gastric secretion; assay type: in vivo; conditions: po
mydriasis = test: (E) Anticholinergic action measured as mydriasis; assay type: in vivo, mice; conditions: mice
From the text: as §1

[5] = 10 mg/kg s.c., control K 12 (4A), 13 (4B)

Structure (SMILES) | minimal effective dose ([2]; sc) | LD50 (Toxicity (LD50); po, i.g.) | Potentiation of catecholamine blood-pressure effect (F) [1] | minimal effective dose ([2]; po, i.g.) | Anticholinergic action (mydriasis) (E) (mydriasis; up to 75 mg/kg s.c.) | further results
CN(C)CCC=C1c2ccccc2CCc2ccccc21 [Amitryptyline, reference compound] | 5 mg/kg | 200 mg/kg |  |  |  | ED50 ([1]; Canis lupus familiaris, iv, read-out: Potentiation of catecholamine blood-pressure effect ED50 (F)): 1 mg/kg; Influence on the sleeping period (D) ([3]; 5 mg/kg s.c.): +103%; ED50 [4]: 23 mg/kg; Spontaneous motility (C), S = substance (spontaneous motility; 5 mg/kg s.c., control K 17): 4 impulses per minute; LD50 (Toxicity (LD50); sc): 100 mg/kg
CCN(CC)CCOc1cc(=O)c2ccccc2c2ccccc12 [Example 1, 5-(2-Diethylaminoethoxy)-7H-dibenzo(a,c)cyclohepten-5-one(7).hydrochloride] | 5 mg/kg | 300 mg/kg | no effect | 20 mg/kg | no effect | inhibition at 25 mg/kg (gastric secretion; Shay preparation, 25 mg/kg i.g.): 56%; Influence on the sleeping period (D) ([3]; 5 mg/kg s.c.): -42%; Spontaneous motility (C), S = substance (spontaneous motility; 5 mg/kg s.c., control K 17): 20 impulses per minute
CN/C(=N/CCSCc1nc[nH]c1C)NC#N [cimetidine, reference compound] |  |  |  |  |  | inhibition at 80 mg/kg (gastric secretion; read-out: Inhibition of gastric secretion): 45%
Cc1ccccc1-n1c(C)nc2ccccc2c1=O [M] |  |  |  |  |  | Spontaneous motility (C), M = methaqualone (spontaneous motility; Amitryptyline column, control K 20): 2 impulses per minute; Spontaneous motility (C), M = methaqualone (spontaneous motility; Example 1 column, control K 20): 2 impulses per minute; Spontaneous motility (C), M = methaqualone (spontaneous motility; Example 4A column, control K 16): 3 impulses per minute; Spontaneous motility (C), M = methaqualone (spontaneous motility; Example 4B column, control K 20): 2 impulses per minute; Spontaneous motility (C), M = methaqualone (spontaneous motility; Example 4C column, control K 19): 6 impulses per minute
CN(C)CCCc1cc(=O)c2ccccc2c2ccccc12 [Example 4A, 5-(3-Dimethylaminopropyl)-7H-dibenzo(a,c)cyclohepten-5-one(7)] | 5 mg/kg | 200 mg/kg | no effect | 20 mg/kg | no effect | Spontaneous motility (C), S = substance (spontaneous motility; [5]): 12 impulses per minute
CNCCCc1cc(=O)c2ccccc2c2ccccc12 [Example 4C, 5-(3-methylaminopropyl)-7H-dibenzo(a,c)cyclohepten-5-one(7).oxalate] |  | 800 mg/kg | no effect | 75 mg/kg |  | Anticholinergic action (mydriasis) (E) (mydriasis; up to 200 mg/kg i.g.): no effect; Spontaneous motility (C), S = substance (spontaneous motility; 150 mg/kg i.g., control K 15): 19 impulses per minute
CCN(CC)CCCc1cc(=O)c2ccccc2c2ccccc12 [Example 4B, 5-(3-Diethylaminopropyl)-7H-dibenzo(a,c)cyclohepten-5-one(7).oxalate] | 10 mg/kg | 200 mg/kg | no effect | 30 mg/kg | no effect | Influence on the sleeping period (D) ([3]; 10 mg/kg s.c.): +11%; Spontaneous motility (C), S = substance (spontaneous motility; [5]): 21 impulses per minute
